# Test: recombinant barcode read abundance after kanamycin selection (control-corrected) (log10(CPM+1)); higher = more efficient recombination; sequences stand for … in AGTGCAGAGAAAATCGGCCAGTTTTCTCTGCCTGCAGTCCGCATGCCGT…AGATTTATGCAGCGGACTGCCTTTCTCCCAAAGTGATAAACCGGACAGTATCATGGACCGGTTTTCCCGGTAATCCGTATTTGCAAGGTTGGTTTCACT; site = the 11-nt target
# How it was run: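 Reported as log10(CPM+1), each value stands for recombination efficiency. That efficiency is the averaged, control-corrected counts per million of barcodes found at recombinant junctions. Cells from a pooled E. coli library pairing targets with IS621 bridge RNA target-binding loops were plated twice on chloramphenicol/ampicillin LB agar (control) and twice on chloramphenicol/ampicillin/kanamycin with 0.1 mM IPTG.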
# 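Note: IS621 recombinase and bridge RNA in Escherichia coli cells.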
row,Sequence,recombinant barcode read abundance (log10)
1,TTCCGCTCTTGGGTTCTAACCTGTTGCCT (site GTCCGCTCTAG),0.139
2,CAGGGTTCTTGGGTTCTAACCTGTTGCCT (site CGGGGTTCTAG),0.12
3,GAGTTGCCTTGGGTTCTAACCTGTTGCGG (site GAGTCGCCTCC),0.25
4,ACTTCACCTTGGGTTCTAACCTGTTGCCT (site ACTTCACCTAG),1.02
5,TGCTTACCTTGGGTTCTAACCTGTTGCCT (site CGCTTACCTAG),0.332
6,GAACCTCCTTGGGTTCTAACCTGTTGCAT (site TGCGTAACTTG),0.0548
7,TTACGCGCTTGGGTTCTAACCTGTTGCGG (site TTACGAGCTCC),0.258
8,AGCAGTCCTTGGGTTCTAACCTGTTGCTG (site AGCAGTCCTCA),0.802
9,AGTACTCCTTGGGTTCTAACCTGTTGCTG (site AGTACTCCTCA),0.172
10,GTGAGGTCTTGGGTTCTAACCTGTTGCAT (site GTGAGGTCTAT),2.71
11,GACTTTACTTGGGTTCTAACCTGTTGCCT (site GACGTTGCTAG),0.00775
12,CTGGCCACTTGGGTTCTAACCTGTTGCCT (site CCGGCCACTAG),0.0832
13,CGGCGTCCTTGGGTTCTAACCTGTTGCCG (site CGGCGTCCTCG),0.197
14,GCATCGTCTTGGGTTCTAACCTGTTGCCT (site GCGTCGTCTAG),0.0424
15,GCCTCTTCTTGGGTTCTAACCTGTTGCCT (site GTCTCTACTAG),0.0556
16,GTAATGACTTGGGTTCTAACCTGTTGCCT (site GGAATGACTAG),0.105
17,ATTCGAGCTTGGGTTCTAACCTGTTGCAT (site CGGGCGTCTTA),0.203
18,GGTCAACCTTGGGTTCTAACCTGTTGCGG (site GGTCAACCTCC),2.5
19,ACTACTCCTTGGGTTCTAACCTGTTGCGA (site ACTAGTCCTTG),0.119
20,GTCTCCTCTTGGGTTCTAACCTGTTGCCT (site GTCCCCTCTAG),2.26
21,CAGATGACTTGGGTTCTAACCTGTTGCCT (site CAAATTACTAG),0.393
22,CGGCATACTTGGGTTCTAACCTGTTGCCT (site CTGCATACTAG),0

row,Sequence,recombinant barcode read abundance (log10)
1,TAGCCTGCTTGGGTTCTAACCTGTTGCCT (site TAGACTGCTAG),0.0305
2,TACTAACCTTGGGTTCTAACCTGTTGCCT (site TACTAACCTAG),0.752
3,TCCCGTACTTGGGTTCTAACCTGTTGCAT (site TCCGGTACTAT),0.0638
4,CTTTCCTCTTGGGTTCTAACCTGTTGCTT (site CATTACTCTAA),0.2
5,TGACGTTCTTGGGTTCTAACCTGTTGCCT (site TGACGTTCTAG),0.313
6,GACTTCCCTTGGGTTCTAACCTGTTGCAT (site GACTTTCCTAT),0.0857
7,TCGCACACTTGGGTTCTAACCTGTTGCTA (site TCGCACACTTA),0.148
8,GCGTCTCCTTGGGTTCTAACCTGTTGCAT (site GCGTCTCCTAT),0.335
9,ACTTGACCTTGGGTTCTAACCTGTTGCGG (site ACTTGACCTCC),2.31
10,CGCTCATCTTGGGTTCTAACCTGTTGCCT (site CGGTCATCTAG),0.154
11,TGTATGTCTTGGGTTCTAACCTGTTGCCT (site CGTATGTCTAG),0.529
12,CTGGGGTCTTGGGTTCTAACCTGTTGCCT (site CTGGAGTCTAG),0.858
13,TTCAAGCCTTGGGTTCTAACCTGTTGCCT (site TTCAAGGCTAG),0.0261
14,AGGAACCCTTGGGTTCTAACCTGTTGCTG (site AGGAACCCTAA),0.712
15,ACAGAATCTTGGGTTCTAACCTGTTGCCT (site ACAGAATCTAG),1.69
16,GACGATCCTTGGGTTCTAACCTGTTGCCT (site GGCGATCCTAG),0.255
17,GCTCGACCTTGGGTTCTAACCTGTTGCTG (site CGCTCCTCTAT),0.18
18,TTCTTAACTTGGGTTCTAACCTGTTGCGG (site ACTGATCCTAT),0.0323
19,GAGCTACCTTGGGTTCTAACCTGTTGCCG (site GAGCTACCTGG),0.0124
20,GTACAATCTTGGGTTCTAACCTGTTGCCT (site ATACAATCTAG),0.947
21,TAGTTGCCTTGGGTTCTAACCTGTTGCCT (site TAATTGCCTAG),0.296
22,TCCTAAGCTTGGGTTCTAACCTGTTGCTA (site TCCAAAGCTTA),0.05

row,Sequence,recombinant barcode read abundance (log10)
1,CCGATTCCTTGGGTTCTAACCTGTTGCCT (site CCGATTCCTAG),0.217
2,GACTGAGCTTGGGTTCTAACCTGTTGCGT (site GGCTGAGCTAG),0.236
3,ACAGAATCTTGGGTTCTAACCTGTTGCCT (site ACAGGATCTAA),0.0318
4,GAGCGGACTTGGGTTCTAACCTGTTGCCT (site GAGCCGACTAG),0.388
5,GAGGTGCCTTGGGTTCTAACCTGTTGCTG (site GAGGTGCCTCA),2
6,ATGAGAGCTTGGGTTCTAACCTGTTGCCT (site ATGAGAGCTAG),1.05
7,GTATGTGCTTGGGTTCTAACCTGTTGCAA (site CTATGTGCTTC),0.0841
8,AAGGGCGCTTGGGTTCTAACCTGTTGCCT (site AAGGCCGCTAG),0.238
9,TTACAATCTTGGGTTCTAACCTGTTGCCT (site GTACAATCTAG),0.0953
10,ACGAGAGCTTGGGTTCTAACCTGTTGCCT (site ACTAGAGCTAG),0.135
11,GGATATCCTTGGGTTCTAACCTGTTGCCT (site TGAAATCCTAG),0.114
12,CTCGCTCCTTGGGTTCTAACCTGTTGCCA (site CTCGCTCCTTG),0.275
13,TGGTGCGCTTGGGTTCTAACCTGTTGCCT (site TGGTGCGCTAG),1.21
14,ATAGCTACTTGGGTTCTAACCTGTTGCCT (site ATAGCCACTAG),0.248
15,GATGCTACTTGGGTTCTAACCTGTTGCAG (site GATACTACTCT),0.0793
16,GTCCACTCTTGGGTTCTAACCTGTTGCAC (site GTCCACCCTCT),0.0658
17,AGAGTGACTTGGGTTCTAACCTGTTGCCT (site AGAGAGACTAG),1
18,TGGAGTCCTTGGGTTCTAACCTGTTGCCT (site TGGCGTCCTAG),0.0977
19,GCCATCACTTGGGTTCTAACCTGTTGCCT (site GCCATTACTAG),0.12
20,TTCAAGCCTTGGGTTCTAACCTGTTGCCT (site TTCAAGCCTAG),0.329
21,TACGCTCCTTGGGTTCTAACCTGTTGCGT (site TACGCTCCTAA),0.0715
22,TCTGTATCTTGGGTTCTAACCTGTTGCCT (site TCTGTATCTAG),0.614

row,Sequence,recombinant barcode read abundance (log10)
1,ACAAAGCCTTGGGTTCTAACCTGTTGCCT (site ACAAACCCTAG),0.0556
2,CGGATCGCTTGGGTTCTAACCTGTTGCCT (site CGGATTGCTAG),0.271
3,CACCGTCCTTGGGTTCTAACCTGTTGCAT (site CACCGTCCTAT),1.61
4,CGCAATGCTTGGGTTCTAACCTGTTGCCT (site CGAAATGCTAG),0.125
5,CTCTTCGCTTGGGTTCTAACCTGTTGCCT (site CTCTTCGCTAG),0.314
6,TTCATGTCTTGGGTTCTAACCTGTTGCTT (site CTCATGTCTAA),0.138
7,CGTGGTCCTTGGGTTCTAACCTGTTGCGT (site CGTGGTCCTAA),0.615
8,CTCGTTACTTGGGTTCTAACCTGTTGCCT (site CTCGTCACTAG),0.112
9,ACAAACCCTTGGGTTCTAACCTGTTGCCT (site ACAAAGCCTAG),0.159
10,TCTAAGTCTTGGGTTCTAACCTGTTGCCA (site TCTAAGTCTAG),0.045
11,GTATCCACTTGGGTTCTAACCTGTTGCTA (site GTATGCCCTTA),0.0561
12,TCTGGCACTTGGGTTCTAACCTGTTGCCT (site TCCAGCACTAG),0.205
13,GCTCACTCTTGGGTTCTAACCTGTTGCTT (site GCTCACTCTAA),1.63
14,GTTCCATCTTGGGTTCTAACCTGTTGCCT (site GATCCATCTAG),0.172
15,GCCAACCCTTGGGTTCTAACCTGTTGCTT (site GCCAACCCTAG),0.412
16,AAGCCTTCTTGGGTTCTAACCTGTTGCTG (site GAGCCTTCTCT),0.236
17,GCCCCGCCTTGGGTTCTAACCTGTTGCAG (site GCCGCGCCTCT),0.00897
18,GTCAATCCTTGGGTTCTAACCTGTTGCTG (site GTCAAGCCTCA),0.193
19,TAGTTATCTTGGGTTCTAACCTGTTGCTA (site TAGTTATCTTA),0.0606
20,CTATGACCTTGGGTTCTAACCTGTTGCTG (site CTATGACCTCA),1.91

# From the supplement of paper PMC11208160
